# Results reported in patent publication US20220304950A1, “[…] THE TREATMENT OF PATIENTS WITH MAJOR DEPRESSIVE DISORDER, INCLUDING SUICIDALITY” (JANSSEN PHARMACEUTICALS, INC., priority 2019, published 2022).
# Legend:
# Format in all cases: in vivo, human
# [1] = test system: adult patients with MDD assessed to be at imminent risk for suicide; test: CGI-SS-R (SIBAT), Study 1 (Example 4); details: 24 hours post first dose; for CGI-SS-R change, Hodges-Lehmann Est. of Treatment Diff. (95% CI): Esk 84 mg + SOC vs placebo + SOC
# Excerpt: (§1) The SIBAT is a suicide assessment tool that captures suicidal ideation and behavior(s) as reported by patients and reviewed by clinicians permitting efficient collection and documentation of clinical impression of severity of suicidality and imminent and long-term suicide risk and treatment plans.
# (§2) The CGI-SS-R rating is scored on a 7-point scale from 0 (normal, not at all suicidal) to 6 (among the most extremely suicidal patients) and will be based on the totality of information available to the clinician, including information from the SIBAT. The CGI-SS-R summarizes the clinician's overall impression of severity of suicidality and will be used to assess the key secondary endpoint in this study. This rating operates like numerous other CGI-severity scales that have been used in other psychiatric studies. These instruments have shown clinical validity and sensitivity to change.
# (§3) Change in CGI-SS-R from baseline to 24 hours post first dose (Day 2). The CGI-SS-R, derived from the Suicidal Ideation and Behavior Assessment Tool (SIBAT) rating is scored on a 7-point scale from 0 (normal, not at all suicidal) to 6 (among the most extremely suicidal patients).
# [2] = test system: adult patients with MDD assessed to be at imminent risk for suicide; test: MADRS total score, Study 2 (Example 5); details: 24 hours post first dose
# Excerpt: The primary efficacy evaluation will be the MADRS total score. The MADRS will be performed using the Structured Interview Guide for the Montgomery Asberg Depression Rating Scale. The MADRS is a clinician-rated scale designed to be used in subjects with MDD to measure depression severity and detect changes due to antidepressant treatment. The test consists of 10 items, each of which is scored from 0 (item not present or normal) to 6 (severe or continuous presence of the symptoms), for a total possible score of 60. Higher scores represent a more severe condition. The MADRS evaluates apparent sadness, reported sadness, inner tension, sleep, appetite, concentration, lassitude, interest level, pessimistic thoughts, and suicidal thoughts.
# The typical recall period for the MADRS is 7 days. In this study, the MADRS will also be administered using a since last assessment recall, a 4-hour recall on Day 1 and Day 25 postdose, and a 24-hour recall on Day 2. For the MADRS performed at 4 hours postdose on Days 1 and 25, the MADRS scores for the sleep item recorded predose on the same day will be carried forward.
# The primary objective is to compare the efficacy of ESK+SOC to that of PBO+SOC in reducing the symptoms of MDD, including suicidal ideation, as measured by the change from baseline on the MADRS total score at 24 hours post-first dose. […]
# Primary efficacy variable/Primary timepoint: Change in MADRS total score from baseline to 24 hours post first dose (Day 2). The MADRS consists of 10 items that cover all of the core depressive symptoms: each item is scored from 0 (symptom is not present or is normal) to 6 (severe or continuous presence of the symptom). A total score (0 to 60) is calculated by summing the scores of all 10 items. […]
# [3] = test system: adult patients with MDD assessed to be at imminent risk for suicide; test: CGI-SS-R (SIBAT), Study 2 (Example 5); details: 24 hours post first dose
# Excerpt: as §1, §2
# as §3, with “Key secondary efficacy variable: Change” for “Change”
# [4] = test system: adult patients with MDD assessed to be at imminent risk for suicide; test: MADRS subgroup analysis by prior suicide attempt, pooled Examples 4 and 5; details: 24 hours after the first dose
# Procedure: FIG. 11 is a forest plot for the MADRS at 24 hours post first dose: subgroup analyses pooled analysis for Examples 4 and 5.
# In certain aspects, the disclosure relates to methods for reducing symptoms of major depressive disorder, including suicidality, in a human patient assessed to be at imminent risk for suicide comprising the administration of esketamine in addition to standard of care treatment. As reflected in the reported data, for depressive symptoms, the treatment differences favored the administration of esketamine plus standard of care treatment over standard of care treatment alone. In addition, treatment differences between patients that previously attempted suicide (attempters) and those that had not (non-attempters) were also present (see, e.g., data reflected in FIGS. 9-17). […] Improvement in this population is of clinical relevance considering that prior suicide attempt has been identified as the single most important predictor/risk factor for suicide in subjects with MDD.
smiles,measurement,setting,value
"CN[C@]1(c2ccccc2Cl)CCCCC1=O [esketamine, (S)-2-(2-chlorophenyl)-2-(methylamino)cyclohexanone]","CGI-SS-R change, Hodges-Lehmann Est. of Treatment Diff. (95% CI)",[1],0.0 (−1.00; 0.00)
same,"CGI-SS-R change, Hodges-Lehmann Est. of Treatment Diff. (95% CI)",[1]; listed as Esk,0.0
same,"CGI-SS-R score, Day 2 (DB) LOCF, median",[1]; Esk 84 mg + SOC,2.0
same,"CGI-SS-R score, change from baseline to Day 2 (LOCF), median (range)",[1]; Esk 84 mg + SOC,−1.0 (−6; 2)
same,"CGI-SS-R score, change from baseline to Day 2 (LOCF), median (range)","[1]; Esk 84 mg + SOC, listed as Esk",−1.0
same,Effect size for the primary endpoint (MADRS),[2],0.35
same,"MADRS total score change, least-square mean difference (SE) vs placebo+SOC",[2]; ANCOVA LOCF,−3.9 (1.39)
same,"MADRS total score, change from baseline to Day 2 (LOCF), mean (SD)",[2]; esketamine 84 mg+SOC,−15.7 (11.56)
same,"CGI-SS-R change, Hodges-Lehmann estimate (95% CI) of the difference vs placebo+SOC",[3],0.0 (0.00; 0.00)
same,"CGI-SS-R, change from baseline to Day 2 (LOCF), median (range)",[3]; esketamine 84 mg+SOC,−1.0 (−6; 2)
same,Estimated difference (95% CI) vs placebo+SOC in change in MADRS total score,[4]; subpopulation with prior suicide attempt (FIG. 11),−4.81 (−7.26; −2.36)
same,Estimated difference (95% CI) vs placebo+SOC in change in MADRS total score,[4]; subpopulation without prior suicide attempt (FIG. 11),−2.32 (−5.54; 0.91)
